Patent publication US20190256819A1, “PROCESS FOR IMPROVING THE DISSOLUTION BEHAVIOUR OF COMPONENTS IN AQUEOUS SOLUTIONS” (Merck Patent GmbH, priority 2016, published 2019)

Experiment: Measurement of dissolution enthalpy by solution calorimetry (TAM IV Microcalorimeter), relative temperature as a function of time
Type: physicochemical
Conditions: 250 mg sample in 100 mL water, 25° C., stirring at 500 rpm, ampoule broken; FIGS. 1-4
Method: The TAM IV Microcalorimeter was used to detect temperature changes of solutions with an accuracy of 0.001 K, which evolves from the dissolution enthalpy of the substances being tested.
Different formulations of amino acids are placed in an ampoule, surrounded by aqueous solvent. After the ampoule has been ruptured, the temperature change is analyzed.
Experimental Setup: • 250 mg of each sample were filled into a 1 mL crushing ampoule at ambient conditions without any pre-treatment. • The ampoules were closed with a silicone stopper and wax and inserted into the stirrer of the solution calorimeter and immersed into 100 mL water. • The system was then equilibrated at 25° C. while stirring at 500 rpm before the ampoule was broken. • Calibrations with a heat pulse of 2.5 J at a power of 250 mW were performed before and after the break. • For data evaluation, the slope of the baseline before breaking the sample was set to zero by differentiation of the curve, shift to zero and re-integration.
For spray dried multicomponent amino acids the enthalpy of solution measurement have been carried out on a special ampule calorimeter equipped with an isothermal shell. In the course of the calorimetry measurement, the stability of the temperature-control system was maintained constant to within 10^−4K. All experiments were performed three times and were reproducible within 5%.

| Structure (SMILES) | Relative temperature as a function of time on dissolution (enthalpy of solution) |
| --- | --- |
| CC(C)C[C@H](N)C(=O)O [L-leucine] | steady decrease in the temperature |
| O=C(O)[C@@H]1CCCN1 [L-proline] | strong increase in the temperature is observed followed by a continous decrease |
